Assay results from ChEMBL document CHEMBL6087436, “The novel β-hairpin antimicrobial peptide D-G(RF)3 demonstrates exceptional antibacterial efficacy” (Eur J Med Chem, 2025).
≈ marks a conversion by molar mass, not a printed value. Calls of active or inactive are those of the source. The rule behind the calls is not given here.

What was measured:
[1] = test system: Bacillus subtilis; experiment: Antibacterial activity against Bacillus subtilis ATCC 23857 assessed as inhibition of bacterial growth incubated for 18 hrs by microbroth dilution assay; assay type: functional
[2] = test system: Staphylococcus aureus; experiment: Inhibition of biofilm formation in Staphylococcus aureus ATCC 25923 incubated for 24 hrs by crystal violet staining based analysis; assay type: functional, organism-based; details: dose 1-32 µM
[3] = test system: Klebsiella pneumoniae; experiment: Inhibition of biofilm formation in Klebsiella pneumoniae ATCC 700603 incubated for 24 hrs by crystal violet staining based analysis; assay type: functional, organism-based; details: dose 1-32 µM
[4] = test system: Pseudomonas aeruginosa; experiment: Synergistic antibacterial activity against Pseudomonas aeruginosa assessed as fractional inhibitory concentration index in presence of rifampin incubated for 18 hrs by checkerboard method; assay type: functional
[5] = test system: Klebsiella pneumoniae; experiment: Antibacterial activity against Klebsiella pneumoniae ATCC 700603 assessed as inhibition of bacterial growth incubated for 18 hrs by microbroth dilution assay; assay type: functional
[6] = test system: Cell membrane; experiment: Induction of cell membrane permeability in Escherichia coli assessed as bacterial breakage at 2 times MIC by SEM analysis; assay type: subcellular
[7] = test system: Staphylococcus aureus; experiment: Antibacterial activity against Staphylococcus aureus ATCC 25923 in presence of 1 mM MgCl2; assay type: functional, organism-based
[8] = test system: Klebsiella pneumoniae; experiment: Synergistic antibacterial activity against Klebsiella pneumoniae assessed as fractional inhibitory concentration index in presence of polymyxin B incubated for 18 hrs by checkerboard method; assay type: functional
[9] = test system: Cell membrane; experiment: Induction of cell membrane permeability in Escherichia coli assessed as grooves shallower at 2 times MIC by SEM analysis; assay type: subcellular
[10] = test system: Escherichia coli; experiment: Inhibition of biofilm formation in Escherichia coli ATCC 25922 at >= 2 uM incubated for 24 hrs by crystal violet staining based analysis; assay type: functional, organism-based
[11] = test system: Klebsiella pneumoniae; experiment: Synergistic antibacterial activity against Klebsiella pneumoniae assessed as fractional inhibitory concentration index in presence of kanamycin incubated for 18 hrs by checkerboard method; assay type: functional
[12] = Retention time of the compound by RP-HPLC analysis; assay type: physicochemical
[13] = test system: Pseudomonas aeruginosa; experiment: Inhibition of biofilm formation in Pseudomonas aeruginosa ATCC 27853 incubated for 24 hrs by crystal violet staining based analysis; assay type: functional, organism-based; details: dose 1-32 µM
[14] = test system: Staphylococcus aureus; experiment: Antibacterial activity against Staphylococcus aureus ATCC 25923 in presence of 150 mM NaCl; assay type: functional, organism-based
[15] = test system: Pseudomonas aeruginosa; experiment: Antibacterial activity against Pseudomonas aeruginosa ATCC 27853 in presence of 1 mM MgCl2; assay type: functional, organism-based
[16] = test system: Staphylococcus aureus; experiment: Antibacterial activity against Staphylococcus aureus ATCC 25923 assessed as inhibition of bacterial growth incubated for 18 hrs by microbroth dilution assay; assay type: functional
[17] = test system: Pseudomonas aeruginosa; experiment: Induction of drug resistance in Pseudomonas aeruginosa ATCC 27853 assessed as fold increase in MIC incubated for 24 hrs and measured under 40 passages; assay type: functional
[18] = test system: Pseudomonas aeruginosa; experiment: Antibacterial activity against Pseudomonas aeruginosa ATCC 27853 in presence of 6 uM NH4Cl; assay type: functional, organism-based
[19] = test system: Cell membrane; experiment: Induction of Outer membrane permeabilization in Escherichia coli assessed as increase in fluorescence intensity incubated for 1 min by NPN-dye based fluorescence analysis; assay type: subcellular
[20] = test system: Klebsiella pneumoniae; experiment: Synergistic antibacterial activity against Klebsiella pneumoniae assessed as fractional inhibitory concentration index in presence of rifampin incubated for 18 hrs by checkerboard method; assay type: functional
[21] = test system: Staphylococcus aureus; experiment: Synergistic antibacterial activity against Staphylococcus aureus assessed as fractional inhibitory concentration index in presence of bacitracin incubated for 18 hrs by checkerboard method; assay type: functional
[22] = test system: Cell membrane; experiment: Induction of Cytoplasmic membrane depolarization in Staphylococcus aureus measured for every 10 mins by DiSC3(5) dye based fluorescence method
[23] = Stability of compound in mouse plasma assessed as degradation of compound by measuring half life incubated for 48 hrs by RP-HPLC analysis; assay type: ADME, cell-free
[24] = test system: Klebsiella pneumoniae; experiment: In vivo antibacterial activity against Klebsiella pneumoniae ATCC 700603 infected in male Balb/c mouse lung infection model assessed as reduction in alveoli expansion at 10 mg/kg, ip measured after 24 hrs by H and E staining based analysis; assay type: functional, organism-based
[25] = test system: Pseudomonas aeruginosa; experiment: Antibacterial activity against Pseudomonas aeruginosa ATCC 27853 in presence of 4.5 mM KCl; assay type: functional, organism-based
[26] = test system: Pseudomonas aeruginosa; experiment: Antibacterial activity against Pseudomonas aeruginosa ATCC 27853 assessed as inhibition of bacterial growth incubated for 18 hrs by microbroth dilution assay; assay type: functional
[27] = test system: Klebsiella pneumoniae; experiment: In vivo antibacterial activity against Klebsiella pneumoniae ATCC 700603 infected in male Balb/c mouse lung infection model assessed as reduction in serous exudation of alveolar cavities at 10 mg/kg, ip measured after 24 hrs by H and E staining based analysis; assay type: functional, organism-based
[28] = Hemolytic activity in Kunming mouse erythrocytes assessed as hemolysis incubated for 1 hr by multimode reader analysis; assay type: toxicity, cell-based; details: erythrocyte
[29] = test system: Escherichia coli; experiment: Synergistic antibacterial activity against Escherichia coli assessed as fractional inhibitory concentration index in presence of polymyxin B incubated for 18 hrs by checkerboard method; assay type: functional
[30] = test system: Cell membrane; experiment: Induction of cell membrane permeability in Escherichia coli assessed as cluster formation at 2 times MIC by SEM analysis; assay type: subcellular
[31] = test system: Klebsiella pneumoniae; experiment: Inhibition of biofilm formation in Klebsiella pneumoniae ATCC 700603 at 1 uM incubated for 24 hrs by crystal violet staining based analysis; assay type: functional, organism-based
[32] = Hemolytic activity in Kunming mouse erythrocytes assessed as hemolytic rate at 256 uM incubated for 1 hr by multimode reader analysis relative to control; assay type: toxicity, cell-based, Erythrocyte; details: read-out: Activity
[33] = test system: Klebsiella pneumoniae; experiment: In vivo antibacterial activity against Klebsiella pneumoniae ATCC 700603 infected in male Balb/c mouse lung infection model assessed as reduction in pulmonary bacterial load at 5 mg/kg, ip measured after 24 hrs (reference value: 3.05 x 10^9 CFU/g); assay type: functional
[34] = test system: Klebsiella pneumoniae; experiment: In vivo antibacterial activity against Klebsiella pneumoniae ATCC 700603 infected in male Balb/c mouse lung infection model assessed as reduction in pulmonary bacterial load at 10 mg/kg, ip measured after 24 hrs (reference value: 3.05 x 10^9 CFU/g); assay type: functional
[35] = Acute toxicity in male balb/c mouse assessed as lethal dose at ip administration; assay type: organism-based; details: in vivo
[36] = test system: Klebsiella pneumoniae; experiment: In vivo antibacterial activity against Klebsiella pneumoniae ATCC 700603 infected in male Balb/c mouse lung infection model assessed as reduction in crumpling alveoli at 10 mg/kg, ip measured after 24 hrs by H and E staining based analysis; assay type: functional, organism-based
[37] = test system: Cell membrane; experiment: Induction of Inner membrane permeabilization in Escherichia coli ML-35 ATCC […] measured every 5 mins for 120 mins by ONPG dye based assay; assay type: subcellular
[38] = test system: Pseudomonas aeruginosa; experiment: Antibacterial activity against Pseudomonas aeruginosa ATCC 27853 in presence of 4 uM FeCl3; assay type: functional, organism-based
[39] = test system: Escherichia coli; experiment: Synergistic antibacterial activity against Escherichia coli assessed as fractional inhibitory concentration index in presence of rifampin incubated for 18 hrs by checkerboard method; assay type: functional
[40] = test system: Pseudomonas aeruginosa; experiment: Synergistic antibacterial activity against Pseudomonas aeruginosa assessed as fractional inhibitory concentration index in presence of imipenem incubated for 18 hrs by checkerboard method; assay type: functional
[41] = test system: Staphylococcus aureus; experiment: Antibacterial activity against Staphylococcus aureus ATCC 25923 in presence of 6 uM NH4Cl; assay type: functional, organism-based
[42] = test system: Escherichia coli; experiment: Antibacterial activity against Escherichia coli ATCC 25922 assessed as inhibition of bacterial growth incubated for 18 hrs by microbroth dilution assay; assay type: functional
[43] = test system: Staphylococcus aureus; experiment: Antibacterial activity against Staphylococcus aureus ATCC 25923 in presence of 2 mM CaCl2; assay type: functional, organism-based
[44] = test system: Pseudomonas aeruginosa; experiment: Antibacterial activity against Pseudomonas aeruginosa ATCC 27853 in presence of 150 mM NaCl; assay type: functional, organism-based

SMILES: N=C(N)NCCC[C@H](NC(=O)CNC(=O)[C@H]1CCCN1C(=O)[C@H](CCCNC(=N)N)NC(=O)[C@H](Cc1ccccc1)NC(=O)[C@H](CCCNC(=N)N)NC(=O)[C@H](Cc1ccccc1)NC(=O)[C@H](CCCNC(=N)N)NC(=O)[C@@H](N)Cc1ccccc1)C(=O)N[C@@H](Cc1ccccc1)C(=O)N[C@@H](CCCNC(=N)N)C(=O)N[C@@H](Cc1ccccc1)C(=O)N[C@@H](CCCNC(=N)N)C(=O)N[C@@H](Cc1ccccc1)C(N)=O
- MIC [1]: 4 µM (≈ 7.97 µg/mL)
- inhibition [2]: Dose-dependent-effect
- inhibition [3]: Dose-dependent-effect
- fractional inhibitory concentration index (FICI) [4]: 0.313
- MIC [5]: 8 µM (≈ 15.9 µg/mL)
- Activity [6]: Active
- Activity [7]: Active
- fractional inhibitory concentration index (FICI) [8]: 0.188
- Activity [9]: Active
- inhibition [10]: Active
- fractional inhibitory concentration index (FICI) [11]: 0.313
- Retention_time [12]: 14.433 min
- inhibition [13]: Dose-dependent-effect
- Activity [14]: Active
- Activity [15]: Active
- MIC [16]: 4 µM (≈ 7.97 µg/mL)
- fold change (FC) [17]: <4
- Activity [18]: Active
- Activity [19]: Active
- fractional inhibitory concentration index (FICI) [20]: 0.313
- fractional inhibitory concentration index (FICI) [21]: 0.375
- Activity [22]: Dose-dependent-effect
- half-life [23]: 3.03 h
- Activity [24]: Active
- Activity [25]: Active
- MIC [26]: 4 µM (≈ 7.97 µg/mL)
- Activity [27]: Active
- MHC10 [28]: 512 µM
- fractional inhibitory concentration index (FICI) [29]: 0.25
- Activity [30]: Active
- inhibition [31]: Active; Less Effective Than Polymyxin B
- hemolysis at 1 h, 256 µM [32]: 9.7%
- Activity [33]: 1.52 10^8CFU/g
- Activity [34]: 4.93 10^7CFU/g
- LD50 [35]: 81.3 mg/kg
- Activity [36]: Active
- Activity [37]: Dose-dependent-effect
- Activity [38]: Active
- fractional inhibitory concentration index (FICI) [39]: 0.313
- fractional inhibitory concentration index (FICI) [40]: 0.313
- Activity [41]: Active
- MIC [42]: 4 µM (≈ 7.97 µg/mL)
- Activity [43]: Active
- Activity [44]: Active

SMILES: N=C(N)NCCC[C@@H](NC(=O)CNC(=O)[C@H]1CCCN1C(=O)[C@@H](CCCNC(=N)N)NC(=O)[C@@H](Cc1ccccc1)NC(=O)[C@@H](CCCNC(=N)N)NC(=O)[C@@H](Cc1ccccc1)NC(=O)[C@@H](CCCNC(=N)N)NC(=O)[C@H](N)Cc1ccccc1)C(=O)N[C@H](Cc1ccccc1)C(=O)N[C@H](CCCNC(=N)N)C(=O)N[C@H](Cc1ccccc1)C(=O)N[C@H](CCCNC(=N)N)C(=O)N[C@H](Cc1ccccc1)C(N)=O
- MIC [1]: 2 µM (≈ 3.98 µg/mL)
- inhibition [2]: Dose-dependent-effect
- inhibition [3]: Dose-dependent-effect
- fractional inhibitory concentration index (FICI) [4]: 0.313
- MIC [5]: 8 µM (≈ 15.9 µg/mL)
- Activity [6]: Active
- Activity [7]: Active
- fractional inhibitory concentration index (FICI) [8]: 0.188
- Activity [9]: Active
- inhibition [10]: Active
- fractional inhibitory concentration index (FICI) [11]: 0.375
- Retention_time [12]: 14.438 min
- inhibition [13]: Dose-dependent-effect
- Activity [14]: Active
- Activity [15]: Active
- MIC [16]: 4 µM (≈ 7.97 µg/mL)
- fold change (FC) [17]: <4
- Activity [18]: Active
- Activity [19]: Active
- fractional inhibitory concentration index (FICI) [20]: 0.313
- fractional inhibitory concentration index (FICI) [21]: 0.375
- Activity [22]: Dose-dependent-effect
- half-life [23]: > 48 h
- Activity [24]: Active
- Activity [25]: Active
- MIC [26]: 4 µM (≈ 7.97 µg/mL)
- Activity [27]: Active
- MHC10 [28]: > 256 µM
- fractional inhibitory concentration index (FICI) [29]: 0.188
- Activity [30]: Active
- inhibition [31]: Active; Less Effective Than Polymyxin B
- hemolysis at 1 h, 256 µM [32]: 4.3%
- Activity [33]: 5.98 10^7CFU/g
- Activity [34]: 2.48 10^7CFU/g
- LD50 [35]: 45.3 mg/kg
- Activity [36]: Active
- Activity [37]: Dose-dependent-effect
- Activity [38]: Active
- fractional inhibitory concentration index (FICI) [39]: 0.25
- fractional inhibitory concentration index (FICI) [40]: 0.375
- Activity [41]: Active
- MIC [42]: 8 µM (≈ 15.9 µg/mL)
- Activity [43]: Active
- Activity [44]: Active
